Data from PubChem BioAssay (NCI).
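Values below derive from 48-hour exposures of cells grown in 96-well plates, with endpoints linearly interpolated between the two concentrations bracketing the appropriate inhibition level. GI50 = concentration required for 50% inhibition of growth. The concentration for full growth arrest is given as TGI.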

How the values were obtained:
Test in all cases: DTP human tumour cell line panel, 48 h
CCRF-CEM leukemia = system: CCRF-CEM leukemia
SF-295 CNS = system: SF-295 CNS
HT29 colon = system: HT29 colon
786-0 renal = system: 786-0 renal
SK-OV-3 ovarian = system: SK-OV-3 ovarian
MALME-3M melanoma = system: MALME-3M melanoma
BT-549 breast = system: BT-549 breast
MOLT-4 leukemia = system: MOLT-4 leukemia
KM12 colon = system: KM12 colon
OVCAR-5 ovarian = system: OVCAR-5 ovarian
U251 CNS = system: U251 CNS
SK-MEL-28 melanoma = system: SK-MEL-28 melanoma
HOP-62 NSCLC = system: HOP-62 NSCLC
K-562 leukemia = system: K-562 leukemia
NCI-H226 lung = system: NCI-H226 lung
COLO 205 colon = system: COLO 205 colon
PC-3 prostate = system: PC-3 prostate
SK-MEL-2 melanoma = system: SK-MEL-2 melanoma
HS 578T breast = system: HS 578T breast
DU-145 prostate = system: DU-145 prostate
NCI/ADR-RES ovarian = system: NCI/ADR-RES ovarian
SF-539 CNS = system: SF-539 CNS
T-47D breast = system: T-47D breast
MDA-MB-435 = system: MDA-MB-435
TK-10 renal = system: TK-10 renal
SF-268 CNS = system: SF-268 CNS
ACHN renal = system: ACHN renal
MDA-MB-231 breast = system: MDA-MB-231 breast
HOP-92 NSCLC = system: HOP-92 NSCLC
UACC-257 melanoma = system: UACC-257 melanoma
SN12C renal = system: SN12C renal
HL-60(TB) leukemia = system: HL-60(TB) leukemia
HCC-2998 colon = system: HCC-2998 colon
NCI-H460 lung = system: NCI-H460 lung
HCT-116 colon = system: HCT-116 colon
SR leukemia = system: SR leukemia
CAKI-1 renal = system: CAKI-1 renal
HCT-15 colon = system: HCT-15 colon
RPMI-8226 leukemia = system: RPMI-8226 leukemia
OVCAR-8 ovarian = system: OVCAR-8 ovarian
IGROV1 ovarian = system: IGROV1 ovarian
OVCAR-3 ovarian = system: OVCAR-3 ovarian
SW-620 colon = system: SW-620 colon
NCI-H522 lung = system: NCI-H522 lung
EKVX NSCLC = system: EKVX NSCLC
SK-MEL-5 melanoma = system: SK-MEL-5 melanoma
A549 NSCLC = system: A549 NSCLC
MCF7 breast = system: MCF7 breast
UACC-62 melanoma = system: UACC-62 melanoma
SNB-75 CNS = system: SNB-75 CNS
SNB-19 CNS = system: SNB-19 CNS
OVCAR-4 ovarian = system: OVCAR-4 ovarian
A498 renal = system: A498 renal

Fc1ccc(-c2cc3nc(C(Cl)Cl)nc(-c4ccc(Cl)cc4)n3n2)cc1
GI50 (CCRF-CEM leukemia): > 100 µM | TGI (CCRF-CEM leukemia): > 100 µM | GI50 (SF-295 CNS): 3.04 µM | TGI (SF-295 CNS): 9.71 µM | GI50 (HT29 colon): 1.66 µM | TGI (HT29 colon): 5.36 µM | GI50 (786-0 renal): 23.5 µM | TGI (786-0 renal): > 100 µM | GI50 (SK-OV-3 ovarian): 3.23 µM | TGI (SK-OV-3 ovarian): > 100 µM | GI50 (MALME-3M melanoma): > 100 µM | TGI (MALME-3M melanoma): > 100 µM | GI50 (BT-549 breast): 94.7 µM | TGI (BT-549 breast): > 100 µM | GI50 (MOLT-4 leukemia): 4.25 µM | TGI (MOLT-4 leukemia): > 100 µM | GI50 (KM12 colon): 3.01 µM | TGI (KM12 colon): > 100 µM | GI50 (OVCAR-5 ovarian): 3.92 µM | TGI (OVCAR-5 ovarian): > 100 µM | GI50 (U251 CNS): 1.79 µM | TGI (U251 CNS): 4.36 µM | GI50 (SK-MEL-28 melanoma): 8.28 µM | TGI (SK-MEL-28 melanoma): > 100 µM | GI50 (HOP-62 NSCLC): 2.53 µM | TGI (HOP-62 NSCLC): > 100 µM | GI50 (K-562 leukemia): 4.39 µM | TGI (K-562 leukemia): > 100 µM | GI50 (NCI-H226 lung): > 100 µM | TGI (NCI-H226 lung): > 100 µM | GI50 (COLO 205 colon): 1.84 µM | TGI (COLO 205 colon): 4.05 µM | GI50 (PC-3 prostate): 3.96 µM | TGI (PC-3 prostate): > 100 µM | GI50 (SK-MEL-2 melanoma): > 100 µM | TGI (SK-MEL-2 melanoma): > 100 µM | GI50 (HS 578T breast): > 100 µM | TGI (HS 578T breast): > 100 µM | GI50 (DU-145 prostate): 1.91 µM | TGI (DU-145 prostate): 5.84 µM | GI50 (NCI/ADR-RES ovarian): 3.32 µM | TGI (NCI/ADR-RES ovarian): > 100 µM | GI50 (SF-539 CNS): 11.3 µM | TGI (SF-539 CNS): > 100 µM | GI50 (T-47D breast): 3.91 µM | TGI (T-47D breast): > 100 µM | GI50 (MDA-MB-435): 6.6 µM | TGI (MDA-MB-435): > 100 µM | GI50 (TK-10 renal): 7.6 µM | TGI (TK-10 renal): > 100 µM | GI50 (SF-268 CNS): 5.09 µM | TGI (SF-268 CNS): > 100 µM | GI50 (ACHN renal): 1.6 µM | TGI (ACHN renal): 4.03 µM | GI50 (MDA-MB-231 breast): 4.08 µM | TGI (MDA-MB-231 breast): > 100 µM | GI50 (HOP-92 NSCLC): 4.66 µM | TGI (HOP-92 NSCLC): > 100 µM | GI50 (UACC-257 melanoma): > 100 µM | TGI (UACC-257 melanoma): > 100 µM | GI50 (SN12C renal): > 100 µM | TGI (SN12C renal): > 100 µM | GI50 (HL-60(TB) leukemia): 2 µM | TGI (HL-60(TB) leukemia): > 100 µM | GI50 (HCC-2998 colon): 1.54 µM | TGI (HCC-2998 colon): 3.14 µM | GI50 (NCI-H460 lung): 1.76 µM | TGI (NCI-H460 lung): 4.69 µM | GI50 (HCT-116 colon): 3.3 µM | TGI (HCT-116 colon): > 100 µM | GI50 (SR leukemia): 3.01 µM | TGI (SR leukemia): > 100 µM | GI50 (CAKI-1 renal): 2.96 µM | TGI (CAKI-1 renal): > 100 µM | GI50 (HCT-15 colon): 2.5 µM | TGI (HCT-15 colon): > 100 µM | GI50 (RPMI-8226 leukemia): 4.55 µM | TGI (RPMI-8226 leukemia): > 100 µM | GI50 (OVCAR-8 ovarian): 4.03 µM | TGI (OVCAR-8 ovarian): > 100 µM | GI50 (IGROV1 ovarian): > 100 µM | TGI (IGROV1 ovarian): > 100 µM | GI50 (OVCAR-3 ovarian): 2.02 µM | TGI (OVCAR-3 ovarian): 4.5 µM | GI50 (SW-620 colon): 2.91 µM | TGI (SW-620 colon): > 100 µM | GI50 (NCI-H522 lung): 3.72 µM | TGI (NCI-H522 lung): > 100 µM | GI50 (EKVX NSCLC): 2.94 µM | TGI (EKVX NSCLC): 14.1 µM | GI50 (SK-MEL-5 melanoma): > 100 µM | TGI (SK-MEL-5 melanoma): > 100 µM | GI50 (A549 NSCLC): 1.8 µM | TGI (A549 NSCLC): 4.53 µM | GI50 (MCF7 breast): 2.45 µM | TGI (MCF7 breast): > 100 µM | GI50 (UACC-62 melanoma): > 100 µM | TGI (UACC-62 melanoma): > 100 µM | GI50 (SNB-75 CNS): > 100 µM | TGI (SNB-75 CNS): > 100 µM | GI50 (SNB-19 CNS): 2.96 µM | TGI (SNB-19 CNS): > 100 µM | GI50 (OVCAR-4 ovarian): 3.11 µM | TGI (OVCAR-4 ovarian): > 100 µM | GI50 (A498 renal): 4.95 µM | TGI (A498 renal): 53.1 µM
